Columns and labels:
[1] = tested on: E. coli; settings: cited from earlier work
[2] = tested on: H. pylori strain #26695; assay: bactericidal effect of selected terpenes on H. pylori viability; assay type: cell-based, Helicobacter pylori; design: key: *NG = no growth; **TNTC = Too Numerous To Count; settings: 10^6 cfu, 24 hours
Method: Five terpenes (anethole, carvone, citral, geraniol and b-ionone) were used for this study. […] The H. pylori used was strain #26695 of […], this bacteria is a motile, cag A, vac A cytotoxin-positive gram negative bacteria which colonizes gnotobiotic piglets and indefinitely persists within the gastric microenvironment as a superficial infection of the gastric mucosa and mucus layer. 1) Stock solutions of each terpene with polysorbate-80 were prepared (1.8 ml terpene plus 0.2 ml polysorbate-80. […] 3) A total of 1.0×10^6 bacteria (30 ul) was added to 970 ul terpene dilutions (final volume of 1.0 ml) in loosely capped tubes and incubated for 24 hours at 37° C. with continuous mixing. […] Bacterial colony forming units (cfu) were determined visual (counting) inspection. Recovered bacteria were confirmed to be H. pylori by catalase and urease enzyme activities.

[3] = tested on: E. coli strain AW574; assay: single terpene or combination against E. coli growth (O.D.); assay type: cell-based; settings: single terpene 2 uMol; 24 hours; compared to the control treatment
Method: The objective of this example was to determine an optimum terpene mixture which could have a greater biocidal effect. E. coli strain AW574 was grown in tryptone broth to an exponential growth phase (O.D. between 0.4 and 1.0 at 590 nm). One tenth of this growth was inoculated to 10 ml of tryptone broth following by the addition of individual terpenes or as indicated on table 2; then incubated for 24 hours at 35-37° C. and the O.D. determined in each tube. The concentration of terpenes was 1 or 2 uMol. Each treatment was repeated in triplicate. The results are expressed as percentage bacterial growth as compared to the control treatment. It is observed that the combination of terpenes give better biocidal effect than single terpenes, with geraniol and carvone better than b-ionone.

[4] = tested on: E. coli strains AW574 or AW405; assay: Lysis of E. coli by terpenes (B-galactosidase/ONPG assay); assay type: cell-based
Text: Lysis of the cell membrane was monitored by the determination of galactosidase activity. B-galactosidase is a well-characterized cytosolic enzyme in bacteria. This enzyme is inducible in the presence of isopropyl-1-thiogalactosidase (IPTG) and assayed colorimetricaly with substrate o-nitro-phenyl-B-D-galactoside (ONPG). ONPG is cleaved to release o-nitrophenol with peak absorbance at 420 nm. Since intact E. coli is impermeable to both ONPG and the enzyme, the cells have to be lysed prior to enzymatic assay. Therefore the ability of terpenes to lyse E. coli can be measured with this enzymatic assay and compared to known lysing agents. The procedure used was as follows: E. coli strains AW574 or AW405 were cultured overnight in 10 ml tryptone broth with […] at 35° C. Cells were allowed to growth after an absorbance equal to 0.9 was reached. Cells were harvested, washed with phosphate buffer and resuspended to an absorbance equal to 0.5. One tenth of a ml of the bacteria culture was added to 0.9 ml of buffer, warmed to 30° C. and then 80 ul of terpenes (85% terpenes and 15% polysorbate-80), 80 ul water (background) or 40 ul chloroform plus 40 ul 1% SDS in water (positive control) were added. After the addition of the lysing agents the tubes were mixed for 10 seconds and 0.2 ml of ONPG (4 mg/ml water) was added, then incubated for 5 minutes. The enzyme activity was stopped with 0.5 ml of 1 M sodium carbonate. After being centrifuged for 3 minutes at 1,500×g, supernatant was transferred to cuvettes and read at 420 nm. The relative degree of lysis caused by terpenes was calculated as follows:
100×(OD terpenes−OD water)/(OD chloroform−OD water)

[5] = tested on: Traveler's Diarrhea; settings: Ericsson, Charles (1998); cited from earlier work
[6] = tested on: H pylori; settings: in vitro; cited from earlier work
[7] = final dilution 1:10 of stock (90% terpene plus 10% polysorbate-80)
[8] = final dilution 1:10000 of stock
[9] = final dilution 1:50000 of stock

CC(C)=CCCC(C)=CC=O [Citral]
concentration in growth media that reduced the concentration of E. coli [1]: more than 0.01% | concentration with bactericidal effect ([1]; growth media): 0.08% | H. pylori growth (cfu recovered) [2, 7]: NG | H. pylori growth (cfu recovered) ([2]; final dilution 1:50 of stock): NG | H. pylori growth (cfu recovered) ([2]; final dilution 1:100 of stock): NG | H. pylori growth (cfu recovered) ([2]; final dilution 1:500 of stock): NG | H. pylori growth (cfu recovered) ([2]; final dilution 1:1000 of stock): NG | H. pylori growth (cfu recovered) ([2]; final dilution 1:5000 of stock): NG | H. pylori growth (cfu recovered) [2, 8]: NG | H. pylori growth (cfu recovered) [2, 9]: TNTC

CC=Cc1ccc(OC)cc1 [Anethole]
H. pylori growth (cfu recovered) [2, 7]: NG | H. pylori growth (cfu recovered) ([2]; final dilution 1:50 of stock): NG | H. pylori growth (cfu recovered) ([2]; final dilution 1:100 of stock): NG | H. pylori growth (cfu recovered) ([2]; final dilution 1:500 of stock): NG | H. pylori growth (cfu recovered) ([2]; final dilution 1:1000 of stock): 10^3 cfu | H. pylori growth (cfu recovered) ([2]; final dilution 1:5000 of stock): 10^3 cfu | H. pylori growth (cfu recovered) [2, 8]: TNTC | H. pylori growth (cfu recovered) [2, 9]: TNTC

CC(=O)/C=C/C1=C(C)CCCC1(C)C [b-Ionone]
% growth [3]: 84.00% | Relative lysis ([4]; 0.0308 uM): 1.3% | Relative lysis ([4]; 0.308 uM): 4.78% | Relative lysis ([4]; 3.08 uM): 23% | Relative lysis ([4]; 30.8 uM): 44% | Relative lysis ([4]; 308 uM): 52% | H. pylori growth (cfu recovered) [2, 7]: NG | H. pylori growth (cfu recovered) ([2]; final dilution 1:50 of stock): NG | H. pylori growth (cfu recovered) ([2]; final dilution 1:100 of stock): NG | H. pylori growth (cfu recovered) ([2]; final dilution 1:500 of stock): NG | H. pylori growth (cfu recovered) ([2]; final dilution 1:1000 of stock): NG | H. pylori growth (cfu recovered) ([2]; final dilution 1:5000 of stock): NG | H. pylori growth (cfu recovered) [2, 8]: NG | H. pylori growth (cfu recovered) [2, 9]: TNTC

Trimethropim-sulfamethoxazole [reference compound]
Efficacy [5]: 70-80% protective

C=C(C)C1CC=C(C)C(=O)C1 (stereo not shown) [Carvone]
% growth [3]: 63.00% | Relative lysis ([4]; 404 uM): 3.2% | Relative lysis ([4]; 4,040 uM): 22% | Relative lysis ([4]; 40,400 uM): 54% | H. pylori growth (cfu recovered) [2, 7]: NG | H. pylori growth (cfu recovered) ([2]; final dilution 1:50 of stock): NG | H. pylori growth (cfu recovered) ([2]; final dilution 1:100 of stock): NG | H. pylori growth (cfu recovered) ([2]; final dilution 1:500 of stock): NG | H. pylori growth (cfu recovered) ([2]; final dilution 1:1000 of stock): NG | H. pylori growth (cfu recovered) ([2]; final dilution 1:5000 of stock): 10^4 cfu | H. pylori growth (cfu recovered) [2, 8]: TNTC | H. pylori growth (cfu recovered) [2, 9]: TNTC

Polysorbate-80 [reference compound]
Relative lysis ([4]; 80 ul Polysorbate-80): 3.2% | H. pylori growth (cfu recovered) [2, 7]: NG* | H. pylori growth (cfu recovered) ([2]; final dilution 1:50 of stock): NG | H. pylori growth (cfu recovered) ([2]; final dilution 1:100 of stock): NG | H. pylori growth (cfu recovered) ([2]; final dilution 1:500 of stock): 10^3 cfu | H. pylori growth (cfu recovered) ([2]; final dilution 1:1000 of stock): 10^4 cfu | H. pylori growth (cfu recovered) ([2]; final dilution 1:5000 of stock): TNTC** | H. pylori growth (cfu recovered) [2, 8]: TNTC | H. pylori growth (cfu recovered) [2, 9]: TNTC

CC(C)=CCC/C(C)=C/CO [Geraniol]
% growth [3]: 54.00% | concentration that inhibited the growth of H pylori [6]: 2 mg/lt. | Relative lysis ([4]; 3.63 uM): 2.4% | Relative lysis ([4]; 36.3 uM): 4% | Relative lysis ([4]; 363 uM): 34% | Relative lysis ([4]; 3,630 uM): 98% | Relative lysis ([4]; 36,300 uM): 96% | H. pylori growth (cfu recovered) [2, 7]: NG | H. pylori growth (cfu recovered) ([2]; final dilution 1:50 of stock): NG | H. pylori growth (cfu recovered) ([2]; final dilution 1:100 of stock): NG | H. pylori growth (cfu recovered) ([2]; final dilution 1:500 of stock): NG | H. pylori growth (cfu recovered) ([2]; final dilution 1:1000 of stock): NG | H. pylori growth (cfu recovered) ([2]; final dilution 1:5000 of stock): NG | H. pylori growth (cfu recovered) [2, 8]: 10^2 cfu | H. pylori growth (cfu recovered) [2, 9]: TNTC

Lactobacillus
Efficacy [5]: Not proven
